Measured values published in patent publication US8604047B2, “Method and composition for treating nodulocystic and conglobate acne vulgaris” (Elorac, Inc., priority 2010, dated 2013).

What was measured:
Type in all cases: in vivo, human
[1] = Daily oral or topical formulations of 5AR inhibitors in male patients with nodulocystic or conglobate acne
[2] = Oral administration to patients with conglobate acne (acne conglobata)
Method: Capsules containing 0.05 mg by weight of dutasteride are administered twice daily for 6 months to patients with conglobate acne.
A flavored oral solution incorporating a 0.75 mg by weight of dutasteride per every 5 ml of solution is administered to young patients with acne conglobata once daily for 24 weeks.
Tablets containing 0.1 mg by weight of finasteride are administered once daily for 12 weeks to patients with acne conglobata.

[3] = Topical cream applied to skin of patients with numerous acne papules, pustules, nodules and cysts; settings: 5% dutasteride cream, once daily for 8 weeks, most patients
Method: A 5% dutasteride cream is prepared containing water, propylene glycol, bentonite, glycerol stearate, isopropyl myristate and cellulose gum, and applied once daily to the skin of patients with numerous acne papules, pustules, nodules and cysts for 8 weeks. After 8 weeks of such treatment, most patients will have at least a 20% decrease in the number of inflammatory acne lesions.

[4] = Oral administration to patients with nodulocystic acne; settings: most patients
Method: Tablets containing 0.5 mg by weight of finasteride are administered once daily for 12 weeks to patients with nodulocystic acne.
Caplets containing 50 mg by weight of finasteride are administered once a week for 24 weeks to patients with severe nodulocystic acne.

[5] = Topical application by patients with nodulocystic acne
Excerpt: Patients with active nodulocystic acne apply 0.05% by weight finasteride prepared in an alcoholic gel containing 6% polyoxyethylene lauryl ether twice daily for 12 weeks.
An aqueous/alcohol solution containing 20% by weight finasteride is applied once daily by patients with nodulocystic acne.

Compound: C[C@]12C=CC(=O)N[C@@H]1CC[C@@H]1[C@@H]2CC[C@]2(C)[C@@H](C(=O)Nc3cc(C(F)(F)F)ccc3C(F)(F)F)CC[C@@H]12 [dutasteride]
- improvement of nodulocystic or conglobate acne [1]: dramatic improvement
- resolution of inflammatory nodules, cysts and sinus tracts ([2]; capsules 0.05 mg dutasteride, oral, twice daily for 6 months): resolution of some of their inflammatory nodules, cysts and sinus tracts
- resolution of conglobate acne at end of treatment ([2]; oral solution 0.75 mg dutasteride per 5 ml, once daily for 24 weeks, young patients, some patients): complete resolution of their conglobate acne
- decrease in the number of inflammatory acne lesions [3]: ≥ 20%

Compound: CC(C)(C)NC(=O)[C@H]1CC[C@H]2[C@@H]3CC[C@H]4NC(=O)C=C[C@]4(C)[C@H]3CC[C@]12C [finasteride]
- improvement of nodulocystic or conglobate acne [1]: dramatic improvement
- old acne lesions by end of treatment ([2]; tablets 0.1 mg finasteride, oral, once daily for 12 weeks): resolved with only minor scarring
- new acne lesions by end of treatment ([2]; tablets 0.1 mg finasteride, oral, once daily for 12 weeks, most patients): very few new acne lesions
- reduction in acne nodules and cysts ([4]; caplets 50 mg finasteride, once a week for 24 weeks, severe nodulocystic acne): marked reduction in acne nodules and cysts
- activity of inflammatory acne lesions at end of treatment ([4]; tablets 0.5 mg finasteride, once daily for 12 weeks): significant decrease in the activity of their inflammatory acne lesions
- nodules and cysts versus before starting treatment ([5]; 0.05% by weight finasteride alcoholic gel with 6% polyoxyethylene lauryl ether, twice daily for 12 weeks): fewer nodules and cysts
- improvement in appearance after twelve weeks ([5]; aqueous/alcohol solution 20% by weight finasteride, once daily, twelve weeks, many patients): dramatic improvement in their appearance
- improvement observed after two weeks ([5]; aqueous/alcohol solution 20% by weight finasteride, once daily, two weeks, most patients): some improvement
